Test results published in the supplement of paper PMC6045584.
± gives the standard deviation of the averaged measurements.

Key:
CRIZOTINIB = compound: C[C@@H](Oc1cc(-c2cnn(C3CCNCC3)c2)cnc1N)c1c(Cl)ccc(F)c1Cl [CRIZOTINIB]; assay: surviving fraction relative to DMSO-only wells; higher = less growth inhibition; conditions: exposure time: 5 days
Summary of the method: (§1)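 Viability values are CellTiter-Glo luminescence readings, given as surviving fraction against the median of DMSO-only wells. The readings were taken after 10 minutes at room temperature, following five days of continuous exposure to inhibitors at 0.5, 1, 5, 10, 50, 100, 500 and 1000 nM that began 24 hours after log-phase tumour cell lines were seeded at 250–500 cells per well in 384-well plates. Every line was screened three times and kept only if replicate Pearson r >0.7 and median Z' >0.3.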

ABIRATERONE = compound: C[C@]12CC[C@H](O)CC1=CC[C@@H]1[C@@H]2CC[C@]2(C)C(c3cccnc3)=CC[C@@H]12 [ABIRATERONE]; assay: as above; conditions: exposure time: 5 days
Summary of the method: as §1

Test System	surviving fraction (CRIZOTINIB; 0.5 nM)	surviving fraction (CRIZOTINIB; 1 nM)	surviving fraction (CRIZOTINIB; 50 nM)	surviving fraction (CRIZOTINIB; 100 nM)	surviving fraction (CRIZOTINIB; 1000 nM)	surviving fraction (ABIRATERONE; 0.5 nM)	surviving fraction (ABIRATERONE; 1 nM)	surviving fraction (ABIRATERONE; 5 nM)	surviving fraction (ABIRATERONE; 10 nM)	surviving fraction (ABIRATERONE; 50 nM)	surviving fraction (ABIRATERONE; 100 nM)	surviving fraction (ABIRATERONE; 500 nM)	surviving fraction (ABIRATERONE; 1000 nM)	surviving fraction (CRIZOTINIB; 5 nM)	surviving fraction (CRIZOTINIB; 10 nM)	surviving fraction (CRIZOTINIB; 500 nM)
22RV1 PROSTATE	0.993 ± 0.1	1.11 ± 0.083	1.11 ± 0.091	0.976 ± 0.16	0.459 ± 0.024	1.06 ± 0.047	1.09 ± 0.086	1.07 ± 0.062	1.09 ± 0.047	1.11 ± 0.029	1.09 ± 0.051	1.17 ± 0.067	1.08 ± 0.054			
93VU HEADNECK	1.08 ± 0.14	1.09 ± 0.072	1.14 ± 0.14	1.18 ± 0.081	0.853 ± 0.038	1.2 ± 0.027	1.15 ± 0.12	1.12 ± 0.031	1.2 ± 0.024	1.32 ± 0.038	1.19 ± 0.056	1.17 ± 0.12	1.11 ± 0.12	1.08 ± 0.12	1.16 ± 0.037	
143B BONE			1.09 ± 0.015		0.865 ± 0.011	1.04 ± 0.013	1.046 ± 0.005	1.05 ± 0.023	1.03	1.06 ± 0.035	1.07 ± 0.035	1.02 ± 0.012	1.01 ± 0.029	1.08 ± 0.012		
A549 LUNG	1.07 ± 0.027	1.07 ± 0.015	1.09 ± 0.023	1.1 ± 0.025	0.649 ± 0.07	1.04 ± 0.05	1.03 ± 0.059	1.05 ± 0.01	1.04 ± 0.045	1.1 ± 0.049	1.11 ± 0.019	1.08 ± 0.12	1.09 ± 0.087			1.09 ± 0.043
ASKA SYNOVIAL		0.942 ± 0.039	0.539 ± 0.043	0.405 ± 0.016	0.205 ± 0.0093	1.19 ± 0.076	1.19 ± 0.11	1.23 ± 0.076	1.11 ± 0.11	1.2 ± 0.059	1.28 ± 0.069	1.19 ± 0.099	1.04 ± 0.1	0.848 ± 0.05	0.7377 ± 0.007	0.168 ± 0.0038
BT20 BREAST	1.24 ± 0.013	1.23 ± 0.091	1.05 ± 0.067	1.08 ± 0.031	0.592 ± 0.095	1.17 ± 0.082	1.04 ± 0.23	1.22 ± 0.11	1.21 ± 0.2	1.12 ± 0.23	1.14 ± 0.15	1.13 ± 0.16	1 ± 0.14	1.13 ± 0.059	1.25 ± 0.05	1.13 ± 0.088
BT549 BREAST		1.07 ± 0.056	1.05 ± 0.062	1.09 ± 0.097	0.375 ± 0.016	0.768 ± 0.079	1.07 ± 0.083	0.991 ± 0.012	1.02 ± 0.059	0.92 ± 0.067	1.15 ± 0.13	1.07 ± 0.038	1.2 ± 0.17		1.06 ± 0.041	
C33A CERVIX	0.954 ± 0.064	0.983 ± 0.088			0.828 ± 0.092	1.19 ± 0.19	1.13 ± 0.059	1.19 ± 0.063	1.03 ± 0.022	1.12 ± 0.08	1.17 ± 0.068	1.2 ± 0.027	1.06 ± 0.13		1.04 ± 0.13	0.925 ± 0.076
CADOES1 SOFT TISSUE		0.892 ± 0.084	0.902 ± 0.073	0.949 ± 0.077	0.314 ± 0.06	0.958 ± 0.12	1.03 ± 0.061	0.978 ± 0.11	0.943 ± 0.04	1 ± 0.025	1.11 ± 0.055	1.04 ± 0.14	0.955 ± 0.061	0.953 ± 0.13	0.91 ± 0.11	0.713 ± 0.18
CAL51 BREAST	0.981 ± 0.081	1.03 ± 0.034	1.01 ± 0.05	1.05 ± 0.046	0.213 ± 0.012	0.988 ± 0.068	0.984 ± 0.019	1.03 ± 0.043	0.964 ± 0.039	1.02 ± 0.048	1.04 ± 0.044	1.02 ± 0.048	1.02 ± 0.028	1.03 ± 0.012	1.07 ± 0.052	0.232 ± 0.024
CAL72 BONE	1.09 ± 0.13	1.09 ± 0.13	1.08 ± 0.15	1.1 ± 0.11	0.814 ± 0.17	1.087 ± 0.0031	1.1 ± 0.023	1.09 ± 0.056	1.09 ± 0.043	1.16 ± 0.012	1.15 ± 0.019	1.13 ± 0.048	1.07 ± 0.027	1.09 ± 0.12	1.11 ± 0.17	0.859 ± 0.15
CAL120 BREAST	0.969 ± 0.069	1 ± 0.076	1 ± 0.04	1.01 ± 0.049	0.685 ± 0.026	0.954 ± 0.011	1 ± 0.015	1.01 ± 0.013	1.01 ± 0.011	1.04 ± 0.059	1.04 ± 0.041	1.05 ± 0.028	0.988 ± 0.037	0.982 ± 0.038		0.933 ± 0.012
CASKI CERVIX	0.955 ± 0.029	1 ± 0.067	0.999 ± 0.053	0.984 ± 0.052	0.383 ± 0.029	0.924 ± 0.015	0.884 ± 0.044	1.04 ± 0.1	1.03 ± 0.018	1.08 ± 0.027	1.1 ± 0.014	1.09 ± 0.032	1.11 ± 0.05		1.04 ± 0.06	0.382 ± 0.063
CHLA90 AUTONOMIC GANGLIA		1 ± 0.025			0.476 ± 0.096	1.01 ± 0.064	1.07 ± 0.043	1.06 ± 0.023	1.05 ± 0.044	1.05 ± 0.052	0.993 ± 0.096	1.08 ± 0.017	1.09 ± 0.05	0.951 ± 0.016	0.929 ± 0.056	0.755 ± 0.14
CME SYNOVIAL	1.23 ± 0.11	1.23 ± 0.1	1.21 ± 0.1	1.18 ± 0.022	0.286 ± 0.033	1.28 ± 0.1	1.38 ± 0.15	1.43 ± 0.15	1.29 ± 0.086	1.37 ± 0.17	1.37 ± 0.029	1.34 ± 0.18	1.2 ± 0.18	1.36 ± 0.16		0.65 ± 0.035
COLO320DM LARGE INTESTINE	1.13 ± 0.11	1.12 ± 0.055	1.21 ± 0.051	1.12 ± 0.092	0.398 ± 0.043	1.13 ± 0.084	1.09 ± 0.033	1.11 ± 0.07	1.17 ± 0.057	1.26 ± 0.19	1.1 ± 0.062	1.2 ± 0.38	1.02 ± 0.027	1.11 ± 0.056	1.04 ± 0.092	0.622 ± 0.015
DU4475 BREAST	0.991 ± 0.16	1 ± 0.12			0.389 ± 0.057	0.872 ± 0.039	1.02 ± 0.19	0.991 ± 0.14	0.983 ± 0.12	0.989 ± 0.15	0.917 ± 0.32	0.998 ± 0.23	0.938 ± 0.34		0.947 ± 0.17	0.611 ± 0.05
H23 LUNG	1.04 ± 0.058	1.02 ± 0.025	1.06 ± 0.062	1.11 ± 0.059		1.07 ± 0.058	1.05 ± 0.062	1.06 ± 0.056	1.07 ± 0.049	1.1 ± 0.063	1.16 ± 0.032	1.17 ± 0.031	1.16 ± 0.072	1.07 ± 0.04	1.08 ± 0.02	1.11 ± 0.072
HCC78 LUNG	0.99 ± 0.11	1 ± 0.074	0.521 ± 0.021	0.522 ± 0.082	0.072 ± 0.029	0.94 ± 0.12	0.911 ± 0.058	1.09 ± 0.15	1.06 ± 0.23	1.12 ± 0.16	1.15 ± 0.25	0.936 ± 0.063	0.823 ± 0.24			0.216 ± 0.062
HCC202 BREAST	1.38 ± 0.033		1.13 ± 0.018	1.25 ± 0.37	1.246 ± 0.0085	1.062 ± 0.0076	1.28 ± 0.2	1.16 ± 0.15	1.32 ± 0.44	1.27 ± 0.073	1.23 ± 0.031	0.991 ± 0.13	0.86 ± 0.28	1.24 ± 0.47	1.05 ± 0.069	1.12 ± 0.12
HCC1395 BREAST	1.06 ± 0.18	1.28 ± 0.025	1.29 ± 0.18	1.28 ± 0.018	1.21 ± 0.061	1.07 ± 0.11	1.07 ± 0.015	1.14 ± 0.059	1.13 ± 0.021	1.08 ± 0.12	1.11 ± 0.13	1.146 ± 0.0049	1.19 ± 0.047	1.33 ± 0.061	1.44 ± 0.15	1.21 ± 0.14
HCC1806 BREAST	1.02 ± 0.13	1.09 ± 0.056	1.13 ± 0.066		0.318 ± 0.007	1.12 ± 0.11	1.08 ± 0.17	1.19 ± 0.024	1.08 ± 0.021	1.19 ± 0.051	1.2 ± 0.11	1.05 ± 0.085	0.953 ± 0.12	1.1 ± 0.065		0.634 ± 0.036
